{"source": "patent US20160361357A1", "about": "“STABLE HIGH CONCENTRATION STRONTIUM COMPOUNDS AND FORMULATIONS FOR TOPICAL APPLICATION” (Cosmederm Bioscience, Inc., priority 2015, published 2016)", "origin": "cited, not measured here", "key": {"synaptotagmin-1": {"target": "synaptotagmin-1 (Homo sapiens, UniProt P21579)", "sequence (P21579 whole entry, species assumed)": "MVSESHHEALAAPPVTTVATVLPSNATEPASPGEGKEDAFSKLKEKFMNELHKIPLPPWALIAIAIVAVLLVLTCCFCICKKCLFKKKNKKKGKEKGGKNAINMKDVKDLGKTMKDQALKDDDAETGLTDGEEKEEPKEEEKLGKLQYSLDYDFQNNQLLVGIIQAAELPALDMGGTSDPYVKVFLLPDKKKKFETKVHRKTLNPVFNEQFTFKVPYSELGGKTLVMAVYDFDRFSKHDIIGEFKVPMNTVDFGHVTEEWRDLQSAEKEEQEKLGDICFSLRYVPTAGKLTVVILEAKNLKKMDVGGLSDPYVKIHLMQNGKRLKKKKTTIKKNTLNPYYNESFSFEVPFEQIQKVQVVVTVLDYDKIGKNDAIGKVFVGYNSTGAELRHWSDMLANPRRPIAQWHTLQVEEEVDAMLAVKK", "settings": "strontium substitutes for calcium; response to TCN activation"}, "TCN": {"system": "TCN", "settings": "strontium mixed with 70% glycolic acid, pH 0.6 chemical peel"}}}
{"compound": "[Sr+2]", "note": "[strontium]", "values": [{"measurement": "reduction of amplitude of synchronous neurotransmitter release", "setting": "synaptotagmin-1", "result": "more than 90%"}, {"measurement": "burning pain and stinging suppressed", "setting": "TCN", "result": "≥ 80", "unit": "%"}]}
